Assay [1] concerns the target T1, OX2 (Homo sapiens, UniProt O43614).
T1 construct: expressed in transfected cells; host or cells: CHO (CHO-OX2)
T1 sequence (O43614 1-444): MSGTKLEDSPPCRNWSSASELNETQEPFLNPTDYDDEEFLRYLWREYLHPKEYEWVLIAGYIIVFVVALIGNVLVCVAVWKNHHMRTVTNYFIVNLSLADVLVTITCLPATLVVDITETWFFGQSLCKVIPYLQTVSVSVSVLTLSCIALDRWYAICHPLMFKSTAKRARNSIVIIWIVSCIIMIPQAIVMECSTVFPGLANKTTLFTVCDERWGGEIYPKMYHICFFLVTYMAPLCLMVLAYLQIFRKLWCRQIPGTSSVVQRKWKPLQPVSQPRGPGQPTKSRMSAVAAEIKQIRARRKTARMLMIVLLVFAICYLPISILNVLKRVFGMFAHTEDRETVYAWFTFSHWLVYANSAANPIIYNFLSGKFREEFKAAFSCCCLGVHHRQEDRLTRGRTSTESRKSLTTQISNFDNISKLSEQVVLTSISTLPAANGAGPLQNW
The assay can be described thus: Orexin receptor cell-based functional assay, [Ca2+]i by FLIPR, CHO-OX2 cells. The conditions noted are these: FLIPR calcium, antagonism of EC90 of [OX]. The procedure: (§1) Measurement of [Ca^2+]i using a FLIPR: CHO-OX1 or CHO-OX2 cells were seeded into black-walled clear-base 384-well plates (Corning, catalog #3712) at a density of 20,000 cells per well in F12-K medium supplemented with 10% FBS and then incubated in a 5% CO2, 37° C. incubator overnight to reach 90% confluency. The cells were incubated with equal volume of calcium6 loading buffer (Molecular Devices, Inc.) containing 2.5 mM probenecid at 37° C. for 2 h, followed by test compounds (dose-range 0.1 nM-10 μM) for another 30 min. The plates were then placed into a FLIPR (Molecular Devices, Inc.) to monitor fluorescence (λ excitation 488 nm, λ emission 540 nm) before and after the addition of EC90 of [OX]. Results for exemplary compounds of Formulae (I), (Ia), (Ib), (II), (IIa), (III), (IIIa), (IV), (IVa), (V), or (Va) are shown in Table 3.

For assay [2], the target named is T2, OX1 (Homo sapiens, UniProt O43613).
T2 construct: expressed in transfected cells; host or cells: CHO (CHO-OX1)
T2 sequence (O43613 1-425): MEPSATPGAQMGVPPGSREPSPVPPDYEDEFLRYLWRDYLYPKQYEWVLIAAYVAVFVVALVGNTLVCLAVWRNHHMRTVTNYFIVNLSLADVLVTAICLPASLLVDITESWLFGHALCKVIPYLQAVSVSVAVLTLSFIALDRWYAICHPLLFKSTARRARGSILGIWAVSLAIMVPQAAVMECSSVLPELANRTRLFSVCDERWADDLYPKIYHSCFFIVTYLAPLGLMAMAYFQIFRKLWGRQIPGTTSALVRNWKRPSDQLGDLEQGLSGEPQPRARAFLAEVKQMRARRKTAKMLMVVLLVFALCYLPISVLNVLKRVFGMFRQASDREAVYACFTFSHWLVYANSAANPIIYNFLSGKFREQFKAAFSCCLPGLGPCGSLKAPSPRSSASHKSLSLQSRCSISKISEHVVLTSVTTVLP
The assay can be described thus: Orexin receptor cell-based functional assay, [Ca2+]i by FLIPR, CHO-OX1 cells. As to conditions: FLIPR calcium, antagonism of EC90 of [OX], read-out: OXI, IC50. How it is done: as §1, with “[OX].” for “[OX]. Results for exemplary compounds of Formulae (I), (Ia), (Ib), (II), (IIa), (III), (IIIa), (IV), (IVa), (V), or (Va) are shown in Table 3.”

Usually IC50 stands for the point on the concentration scale where inhibition reaches its midpoint.

Values joined by “and” are separate entries in the source; they are usually repeats but may differ in a detail not shown here. Identical values can stand only once.

In the case of `Cc1ccc(-c2sc(C)nc2C(=O)N2CC(F)(F)C[C@@H](C)[C@H]2CNc2ncc(C(F)(F)F)cn2)nc1` [Compound 76], the figures for the IC50 in assay [1] and in assay [2] were > 5000 nM and 10 nM, respectively.
The corresponding values for `Cc1cccc(-c2sc(C)nc2C(=O)N2CC(F)(F)C[C@@H](C)[C@H]2CNc2ncc(C(F)(F)F)cn2)n1` [Compound 77] are > 5000 nM and 4 nM.
For the molecule `COc1ccc(-c2sc(C)nc2C(=O)N2CC(F)(F)C[C@@H](C)[C@H]2CNc2ncc(C(F)(F)F)cn2)nc1` [Compound 78], the IC50 was > 5000 nM in assay [1] and 2 nM in assay [2].
In the case of `C[C@@H]1CC(F)(F)CN(C(=O)c2nn(C)nc2-c2ccc(F)cc2)[C@@H]1CNc1ncc(C(F)(F)F)cn1` [Compound 81], the IC50 was > 5000 nM in assay [1] and 102 nM in assay [2].
`C[C@@H]1CC(F)(F)CN(C(=O)c2nn(C)nc2-c2ccccc2)[C@@H]1CNc1ncc(C(F)(F)F)cn1` [Compound 82]: the results for the IC50 in assay [1] and in assay [2] were > 5000 nM and 45 nM, respectively.
The corresponding values for `C[C@@H]1CC(F)(F)CN(C(=O)c2nn(C)nc2-c2ccccn2)[C@@H]1CNc1ncc(C(F)(F)F)cn1` [Compound 83] are > 5000 nM and 56 nM.
The corresponding values for `Cc1nc(C(=O)N2CC(F)(F)C[C@@H](C)[C@H]2CNc2ncc(C(F)(F)F)cn2)c(-c2ccc(F)cc2)o1` [Compound 84] are > 5000 nM and 130 nM.
In the case of `Cc1nc(C(=O)N2CC(F)(F)C[C@@H](C)[C@H]2CNc2ncc(C(F)(F)F)cn2)c(-c2ccccc2)o1` [Compound 85], the IC50 in assay [1] was > 5000 nM; in assay [2], 12 nM and 30 nM.
Consider `Cc1nc(C(=O)N2CC(F)(F)C[C@@H](C)[C@H]2CNc2ncc(C(F)(F)F)cn2)c(-c2ccccn2)o1` [Compound 87], for which the IC50 in assay [1] was > 5000 nM; in assay [2], > 1000 nM.
The corresponding values for `Cc1ccc(-c2cn(C)nc2C(=O)N2CC(F)(F)C[C@@H](C)[C@H]2CNc2ncc(C(F)(F)F)cn2)cn1` [Compound 89] are > 5000 nM and 23 nM.
The corresponding values for `C[C@@H]1CC(F)(F)CN(C(=O)c2nn(C)cc2-c2cccnc2)[C@@H]1CNc1ncc(C(F)(F)F)cn1` [Compound 90] are > 5000 nM and 206 nM.
In the case of `Cc1cc(C(=O)N2CC(F)(F)C[C@@H](C)[C@H]2CNc2ncc(C(F)(F)F)cn2)c(-c2ccccn2)s1` [Compound 91], the IC50 in assay [1] was > 5000 nM; in assay [2], 7 nM.
The corresponding values for `Cc1cc(C(=O)N2CC(F)(F)C[C@@H](C)[C@H]2CNc2ncc(Cl)cn2)c(-c2ccccn2)s1` [Compound 92] are > 5000 nM and 24 nM.
The corresponding values for `C[C@@H]1CC(F)(F)CN(C(=O)c2cn(C)nc2-c2ccccn2)[C@@H]1CNc1ncc(C(F)(F)F)cn1` [Compound 93] are > 5000 nM and 156 nM.
The corresponding values for `C[C@@H]1CC(F)(F)CN(C(=O)c2cnn(C)c2-c2ccccn2)[C@@H]1CNc1ncc(C(F)(F)F)cn1` [Compound 95] are > 5000 nM and > 1000 nM.
Take `C[C@@H]1CC(F)(F)CN(C(=O)c2cnn(C)c2-c2ccccn2)[C@@H]1CNc1ncc(Cl)cn1` [Compound 96]: the IC50 in assay [1] was > 5000 nM; in assay [2], > 1000 nM.
In the case of `C[C@@H]1CC(F)(F)CN(C(=O)c2nn(C)cc2-c2ncccn2)[C@@H]1CNc1ncc(C(F)(F)F)cn1` [Compound 97, ((2S,3R)-5,5-difluoro-3-methyl-2-(((5-(trifluoromethyl)pyrimidin-2-yl)amino)methyl)piperidin-1-yl)(1-methyl-4-(pyrimidin-2-yl)-1H-pyrazol-3-yl)methanone], the half-maximal inhibitory concentration (IC50) is > 5000 nM in assay [1] and 12 nM in assay [2].
On to `C[C@@H]1CC(F)(F)CN(C(=O)c2nn(C)cc2-c2ccccc2)[C@@H]1CNc1cnc(C(F)(F)F)cn1` [Compound 120, ((2S,3R)-5,5-difluoro-3-methyl-2-(((5-(trifluoromethyl)pyrazin-2-yl)amino)methyl)piperidin-1-yl)(1-methyl-4-phenyl-1H-pyrazol-3-yl)methanone], for which the IC50 was > 5000 nM in assay [1] and 2 nM in assay [2].
As to `C[C@@H]1CC(F)(F)CN(C(=O)c2nn(C)cc2-c2ccc(F)cc2)[C@@H]1CNc1cnc(C(F)(F)F)cn1` [Compound 121], the IC50 in assay [1] is > 5000 nM; in assay [2], 5 nM.
`Cc1ccc(-c2cn(C)nc2C(=O)N2CC(F)(F)C[C@@H](C)[C@H]2CNc2cnc(C(F)(F)F)cn2)cc1` [Compound 122]: the IC50 in assay [1] was > 5000 nM; in assay [2], 5 nM.
The corresponding values for `Cc1cccc(-c2cn(C)nc2C(=O)N2CC(F)(F)C[C@@H](C)[C@H]2CNc2cnc(C(F)(F)F)cn2)c1` [Compound 123] are > 5000 nM and 2 nM.
Consider `COc1cccc(-c2cn(C)nc2C(=O)N2CC(F)(F)C[C@@H](C)[C@H]2CNc2cnc(C(F)(F)F)cn2)c1` [Compound 124], for which the IC50 was 1000 nM in assay [1] and 4 nM in assay [2].
As to `COc1ccc(-c2cn(C)nc2C(=O)N2CC(F)(F)C[C@@H](C)[C@H]2CNc2cnc(C(F)(F)F)cn2)cc1` [Compound 125], the IC50 is > 5000 nM in assay [1]; 4 nM and 2 nM in assay [2].
Regarding `C[C@@H]1CC(F)(F)CN(C(=O)c2nn(C)cc2-c2ccccn2)[C@@H]1CNc1cnc(C(F)(F)F)cn1` [Compound 130], the values for the IC50 in assay [1] and in assay [2] were > 5000 nM and 6 nM, respectively.
For `Cc1cccc(-c2cn(C)nc2C(=O)N2CC(F)(F)C[C@@H](C)[C@H]2CNc2cnc(C(F)(F)F)cn2)n1` [Compound 132], the IC50 in assay [1] is > 5000 nM; in assay [2] it was 7 nM.
Consider `Cc1ccc(-c2cn(C)nc2C(=O)N2CC(F)(F)C[C@@H](C)[C@H]2CNc2cnc(C(F)(F)F)cn2)nc1` [Compound 133], for which the IC50 in assay [1] was > 5000 nM; in assay [2], 11 nM.
The corresponding values for `Cc1ccnc(-c2cn(C)nc2C(=O)N2CC(F)(F)C[C@@H](C)[C@H]2CNc2cnc(C(F)(F)F)cn2)c1` [Compound 134] are > 5000 nM and 4 nM.
As to `COc1ccc(-c2cn(C)nc2C(=O)N2CC(F)(F)C[C@@H](C)[C@H]2CNc2cnc(C(F)(F)F)cn2)nc1` [Compound 135], the half-inhibitory concentration (IC50) in assay [1] was > 5000 nM; in assay [2], 19 nM.
Turning to `COc1cccc(-c2cn(C)nc2C(=O)N2CC(F)(F)C[C@@H](C)[C@H]2CNc2cnc(C(F)(F)F)cn2)n1` [Compound 136], the results for the IC50 in assay [1] and in assay [2] were > 5000 nM and 40 nM, respectively.
The corresponding values for `Cc1ccc(-c2sc(C)nc2C(=O)N2CC(F)(F)C[C@@H](C)[C@H]2CNc2cnc(C(F)(F)F)cn2)cc1` [Compound 138] are > 5000 nM and 6 nM.
The corresponding values for `Cc1cccc(-c2sc(C)nc2C(=O)N2CC(F)(F)C[C@@H](C)[C@H]2CNc2cnc(C(F)(F)F)cn2)c1` [Compound 139] are > 5000 nM and 10 nM.
The corresponding values for `COc1cccc(-c2sc(C)nc2C(=O)N2CC(F)(F)C[C@@H](C)[C@H]2CNc2cnc(C(F)(F)F)cn2)c1` [Compound 142] are > 5000 nM and 4 nM.
Take `Cc1ccnc(-c2sc(C)nc2C(=O)N2CC(F)(F)C[C@@H](C)[C@H]2CNc2cnc(C(F)(F)F)cn2)c1` [Compound 147]: the IC50 in assay [1] was > 5000 nM; in assay [2], 5 nM.
The corresponding values for `Cc1ccc(-c2sc(C)nc2C(=O)N2CC(F)(F)C[C@@H](C)[C@H]2CNc2cnc(C(F)(F)F)cn2)nc1` [Compound 148] are > 5000 nM and 6 nM.

(Values after patent US12084437B2, “Halo-substituted piperidines as orexin receptor modulators” (AstraZeneca AB, priority 2016, dated 2024).)
